Paper PMC3871636 (PLoS ONE, 2013)

Assays:
[1] = molecular target: CYP3A4 (double-labeled (C64/C468)-DY/ER) (Homo sapiens, UniProt P08684, form not given/S18F); test: Steady-state LRET titration (delayed emission); assay type: binding; details: human, purified double-labeled CYP3A4 (C64/C468)-DY/ER protein, pH 7.4; (C64/C468)-DY/ER; LRET titration; read-out: K d, steady-state fluorescence
Method: (§1) All absorbance and fluorescence assays (including the time-resolved fluorescence measurements) were performed at a protein concentration ≤1 µM at 25°C with continuous stirring. Absorbance spectra were recorded with an S2000 rapid scanning CCD spectrometer (Ocean Optics). Ligand binding assays were done in 100 mM Na-Hepes buffer, pH 7.4, containing 0.5 mM EDTA.
(§2) Fluorescence-based ligand binding assays were done under anaerobic conditions. Anaerobiosis was achieved using an oxygen-scavenging system consisting of protecatechuate-3,4-dioxygenase (0.5 units/ml) and 5 mM protocatechuic acid. The steady state and time-resolved phosphorescence measurements were performed with the use of a Cary Eclipse fluorescence spectrophotometer (Varian/Agilent Technologies). The excitation wavelength was set to 540 nm. Spectra were taken from 650 to 860 nm with 100 µs delay.
(§3) Quantitative interpretation of LRET results was also based on the use of PCA applied to a series of emission spectra normalized on integral intensity. […] Intensity of the donor and acceptor fluorescence obtained in this way were used in determination of the efficiency of steady-state LRET using the equation [drawing 1] (Eq.1) where I ad is emission intensity of the acceptor, I da is the residual donor emission in the presence of acceptor (I da), Φ a and Φ d are the quantum yield of the fluorescence of acceptor and the quantum yield of the phosphorescence of donor, respectively.
(§4) Distances were calculated using the equation: [drawing 3] (Eq.3) where R 0 is the Förster distance, and R is the distance between the donor and acceptor. R 0 was calculated with the use of PhotoChemCad software. In these calculations, we used the values of the orientation factor (κ^2) and the refractive index (n) of 0.667 and 1.4, respectively.
(§5) When fitting the results of titration experiments, where the changes in the monitored signal A S (fraction of the enzyme in the high-spin state, intensity or the lifetime of the donor phosphorescence at a given substrate concentration) were assumed to be proportional to [ES], this equation was complemented with the offset A 0 and the scaling factor A max to yield the following relationship: [drawing 5] (Eq.5)

[2] = molecular target: T1, double-labeled CYP3A4 (C64/C468)-DY/ER (Homo sapiens, UniProt P08684, S18F, form not given); test: Steady-state LRET titration (delayed emission); assay type: binding
T1 sequence (P08684 13-503 S18F, form open): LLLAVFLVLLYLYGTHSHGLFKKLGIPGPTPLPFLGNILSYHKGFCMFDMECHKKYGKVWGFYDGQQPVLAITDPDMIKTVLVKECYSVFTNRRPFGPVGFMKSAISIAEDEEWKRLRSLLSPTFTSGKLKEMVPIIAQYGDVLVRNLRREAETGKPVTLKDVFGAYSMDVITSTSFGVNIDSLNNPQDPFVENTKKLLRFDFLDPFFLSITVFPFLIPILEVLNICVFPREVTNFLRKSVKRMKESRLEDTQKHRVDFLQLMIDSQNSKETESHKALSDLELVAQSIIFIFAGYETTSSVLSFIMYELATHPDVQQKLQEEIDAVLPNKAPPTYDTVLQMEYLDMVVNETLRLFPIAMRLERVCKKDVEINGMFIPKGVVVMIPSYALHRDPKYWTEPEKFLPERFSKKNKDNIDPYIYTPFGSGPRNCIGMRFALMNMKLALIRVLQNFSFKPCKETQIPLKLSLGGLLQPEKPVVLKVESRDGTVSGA
Method: as §1, §2, §3, §4, §5

[3] = molecular target: T2, double-labeled CYP3A4 (C64/C468)-ER/DY (Homo sapiens, UniProt P08684, S18F, form not given); test: Steady-state LRET titration (delayed emission); assay type: binding
T2 sequence (P08684 13-503 S18F, form open): as above
Method: as §1, §2, §3, §4, §5

[4] = molecular target: T3, double-labeled CYP3A4 C377/C468-DY/ER (Homo sapiens, UniProt P08684, S18F, form not given); test: Steady-state LRET titration (delayed emission); assay type: binding; details: Table S2, protein C377/C468-ER/DY
T3 sequence (P08684 13-503 S18F, form open): as above
Method: as §1, §2, §3, §4, §5

[5] = molecular target: T1, double-labeled CYP3A4 (C64/C468)-DY/ER; test: Time-resolved LRET (phosphorescence lifetime measurements)
Excerpt: (§6) The excitation wavelength was set to 540 nm.

[6] = molecular target: T2, double-labeled CYP3A4 (C64/C468)-ER/DY; test: as above
Excerpt: as §6

[7] = molecular target: T3, double-labeled CYP3A4 C377/C468-DY/ER; test: as above
Excerpt: as §6

[8] = molecular target: double-labeled CYP3A4 C64/C121-DY/ER (Homo sapiens, UniProt P08684, A121C/C239S/C377S/C468A/C98S/S18F); test: as above
double-labeled CYP3A4 C64/C121-DY/ER, sequence (P08684 with tags, fused parts or gaps S18F/C98S/A121C/C239S/C377S/C468A limits assumed): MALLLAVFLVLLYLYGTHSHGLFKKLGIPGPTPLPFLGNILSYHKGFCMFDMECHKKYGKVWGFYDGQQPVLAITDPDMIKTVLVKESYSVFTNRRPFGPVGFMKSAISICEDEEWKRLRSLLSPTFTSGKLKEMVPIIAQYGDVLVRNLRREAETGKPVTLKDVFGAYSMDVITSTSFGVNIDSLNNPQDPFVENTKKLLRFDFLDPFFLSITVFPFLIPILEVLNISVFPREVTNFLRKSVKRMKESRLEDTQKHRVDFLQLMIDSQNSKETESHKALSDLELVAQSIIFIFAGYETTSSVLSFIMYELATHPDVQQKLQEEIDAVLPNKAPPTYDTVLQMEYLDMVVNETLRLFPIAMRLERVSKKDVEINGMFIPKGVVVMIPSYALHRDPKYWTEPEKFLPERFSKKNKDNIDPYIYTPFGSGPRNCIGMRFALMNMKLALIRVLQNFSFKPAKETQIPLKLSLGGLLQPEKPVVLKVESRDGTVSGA
Method: as §1, §2
The treatment of the time-resolved decay traces was performed using a bi-exponential approximation. The efficiency of time-resolved LRET was calculated using the equation [drawing 2] (Eq.2)
In this equation τda and τd designate the average lifetime of the excited state of the donor in the presence and absence of the acceptor, respectively. These average lifetimes are determined as τ = α1τ1+α2τ2, where τ1,2 and α1,2 stay for the lifetime and the relative amplitude of each of the two exponential terms. In our calculations of the lifetime in double-labeled C64/C468, C377/C468 and C64/C121 proteins we used the lifetimes of phosphorescence measured with the respective proteins labeled with ERIA at a label:protein ratio 2∶1 as the estimates of τd.
as §4

[9] = Table S2, C64/C468-DY/ER, 1-PB 40 µM, ANF 100 µM, BCT 2.5 µM, cholesterol 100 µM, testosterone 100 µM
[10] = Table S2, C64/C468-DY/ER, same ligand concentrations
[11] = Table S2, C64/C468-ER/DY, 1-PB 40 µM, ANF 100 µM, BCT 2.5 µM, cholesterol 100 µM, testosterone 100 µM
[12] = Table S2, C64/C468-ER/DY, same ligand concentrations
[13] = (C64/C468)-DY/ER, nearly-saturating ligand: ANF 100 µM, bromocriptine 2.5 µM, cholesterol 50 µM, testosterone 100 µM
[14] = Table S1, (C64/C468)-DY/ER, same ligand concentrations
[15] = (C64/C468)-ER/DY, nearly-saturating ligand: ANF 100 µM, bromocriptine 2.5 µM, cholesterol 50 µM, testosterone 100 µM
[16] = Table S1, (C64/C468)-ER/DY, same ligand concentrations
[17] = Table S1, protein (C377/C468)-ER/DY, same ligand concentrations
[18] = Table S2, protein C377/C468-ER/DY, same ligand concentrations
[19] = Table S1, protein (C64/C121)-ER/DY, same ligand concentrations
[20] = Table S2, protein C64/C121-ER/DY, same ligand concentrations

CYP3A4 (double-labeled (C64/C468)-DY/ER), sequence (P08684 13-503 S18F, form open): as the sequence (P08684 13-503 S18F, form open) above

For `OCCCCc1ccc2ccc3cccc4ccc1c2c34` [1-PB, 1-pyrenebutanol], the Kd [1] was 22.2 ± 4 µM, the “ΔR (change in interprobe distance), steady-state fluorescence” value ([2]; (C64/C468)-DY/ER) was 0.9±1.8 Å and the “ΔE (change in LRET efficiency), steady-state fluorescence” value ([2]; (C64/C468)-DY/ER, from maximal relative change in donor intensity) was −4±1%. For the same compound, the “E (LRET efficiency with ligand), steady-state measurements” value [2, 9] was 41 ± 1%, the “R (interprobe distance with ligand), steady-state measurements” value [2, 10] was 35.8 ± 1.8 Å and the “ΔR, steady-state measurements” value [2, 10] was 0.9 ± 1.8 Å. The “ΔR (change in interprobe distance), steady-state fluorescence” value ([3]; (C64/C468)-ER/DY) was −0.3±0.8 Å, the “ΔE (change in LRET efficiency), steady-state fluorescence” value ([3]; (C64/C468)-ER/DY, from maximal relative change in donor intensity) was 1±1% and the “E (LRET efficiency with ligand), steady-state measurements” value [3, 11] was 30 ± 1%. The “R (interprobe distance with ligand), steady-state measurements” value [3, 12] was 38.8 ± 0.8 Å, the “ΔR, steady-state measurements” value [3, 12] was −0.3 ± 0.8 Å and the “E (LRET efficiency with ligand), steady-state measurements” value ([4]; 1-PB 40 µM, ANF 100 µM, BCT 2.5 µM, cholesterol 100 µM, testosterone 100 µM) was 16± 1%. For the same compound, the “R (interprobe distance with ligand), steady-state measurements” value ([4]; same ligand concentrations) was 44.5 ± 0.7 Å, the “ΔR, steady-state measurements” value ([4]; same ligand concentrations) was −0.2 ± 0.7 Å and the “ΔELT (change in LRET efficiency), lifetime measurements” value [5, 13] was “+3.8±1%”. The “ΔR (change in interprobe distance), lifetime measurements” value [5, 13] was −0.9±0.1 Å, the “τ1 (phosphorescence decay time with ligand)” value ([5]; Table S1, (C64/C468)-DY/ER, 1-PB 40 µM, ANF 100 µM, BCT 2.5 µM, cholesterol 100 µM, testosterone 100 µM, bi-exponential fit) was 53 ± 1 µs and the “F1 (fraction of first exponential)” value [5, 14] was 46 ± 3%. For the same compound, the “τ2 (phosphorescence decay time with ligand)” value [5, 14] was 195 ± 7 µs, the “τav (average phosphorescence lifetime with ligand)” value (shortened to “τav”) [5, 14] was 129 ± 1 µs and the “E (LRET efficiency with ligand), lifetime measurements” value [5, 9] was 45 ± 1%. For the same compound, the “R (interprobe distance with ligand), lifetime measurements” value [5, 10] was 35.8 ± 0.1 Å, the “ΔR, lifetime measurements” value [5, 10] was -0.9 ± 0.1 Å and the “ΔELT (change in LRET efficiency), lifetime measurements” value [6, 15] was −1.5±1%. The “ΔR (change in interprobe distance), lifetime measurements” value [6, 15] was 0.4±0.1 Å, the “τ1 (phosphorescence decay time with ligand)” value ([6]; Table S1, (C64/C468)-ER/DY, 1-PB 40 µM, ANF 100 µM, BCT 2.5 µM, cholesterol 100 µM, testosterone 100 µM, bi-exponential fit) was 63 ± 2 µs and the “F1 (fraction of first exponential)” value [6, 16] was 60 ± 8%. For the same compound, the “τ2 (phosphorescence decay time with ligand)” value [6, 16] was 241 ± 5 µs, the “τav” value [6, 16] was 138 ± 4 µs and the “E (LRET efficiency with ligand), lifetime measurements” value [6, 11] was 41 ± 1%. The “R (interprobe distance with ligand), lifetime measurements” value [6, 12] was 36.7 ± 0.1 Å, the “ΔR, lifetime measurements” value [6, 12] was 0.4 ± 0.1 Å and the “τ1 (phosphorescence decay time with ligand)” value ([7]; Table S1, protein (C377/C468)-ER/DY, 1-PB 40 µM, ANF 100 µM, BCT 2.5 µM, cholesterol 100 µM, testosterone 100 µM, bi-exponential fit) was 45 ± 5 µs. For the same compound, the “F1 (fraction of first exponential)” value [7, 17] was 30 ± 3%, the “τ2 (phosphorescence decay time with ligand)” value [7, 17] was 149 ± 5 µs and the “τav” value [7, 17] was 118 ± 2 µs. For the same compound, the “E (LRET efficiency with ligand), lifetime measurements” value ([7]; Table S2, protein C377/C468-ER/DY, 1-PB 40 µM, ANF 100 µM, BCT 2.5 µM, cholesterol 100 µM, testosterone 100 µM) was 35 ± 1%, the “R (interprobe distance with ligand), lifetime measurements” value [7, 18] was 38.3 ± 0.3 Å and the “ΔR, lifetime measurements” value [7, 18] was 1.6 ± 0.3 Å. For the same compound, the “τ1 (phosphorescence decay time with ligand)” value ([8]; Table S1, protein (C64/C121)-ER/DY, 1-PB 40 µM, ANF 100 µM, BCT 2.5 µM, cholesterol 100 µM, testosterone 100 µM, bi-exponential fit) was 57 ± 1 µs, the “F1 (fraction of first exponential)” value [8, 19] was 35 ± 1% and the “τ2 (phosphorescence decay time with ligand)” value [8, 19] was 199 ± 12 µs. For the same compound, the “τav” value [8, 19] was 149 ± 9 µs, the “E (LRET efficiency with ligand), lifetime measurements” value ([8]; Table S2, protein C64/C121-ER/DY, 1-PB 40 µM, ANF 100 µM, BCT 2.5 µM, cholesterol 100 µM, testosterone 100 µM) was 46 ± 5% and the “R (interprobe distance with ligand), lifetime measurements” value [8, 20] was 35.4 ± 0.8 Å. For the same compound, the “ΔR, lifetime measurements” value [8, 20] was 0.4 ± 0.8 Å.
